Results taken from patent US10835513B2, “Methods and treatments for the learning and memory deficits associated with Noonan syndrome” (The Regents of the University of California, priority 2013, dated 2020).

System: pyramidal neurons of Ptpn11^D61G/+ mice
Test: Whole-cell voltage clamp mEPSC recordings in Ptpn11^D61G/+ mice
Format: cell-based
Settings: SL327 1 μM
Procedure: FIG. 4 are graphs showing PTPN11^D61G overexpression enhances excitatory synaptic function through increased Ras-Erk signaling. Panel a) AMPA receptor-mediated currents were measured at the peak of the currents at −65 mV, and NMDA currents were measured 50 ms after onset at +40 mV. The average of 15 traces is shown. Scale, 100 pA and 40 ms. Panel b) Group data showing the increased AMPA:NMDA current ratio in AAV-PTPN11^D61G mice (1.51±0.11, n=10 cells from 5 mice) compared with AAV-GFP mice (0.96±0.05, n=10 cells from 5 mice, t-test, ***P<0.001). […] Two-way ANOVA, interaction between viral treatment and drug, F(1, 31)=10.53, **P<0.01. […] Panel c) Paired-pulse facilitation ratio is unaffected by PTPN11^D61G. There was no significant difference at 25 ms or 50 ms intervals between two groups (AAV-PTPN11^D61G, n=12 cells from 5 mice; AAV-GFP, n=11 cells from 5 mice). Repeated-measures ANOVA, F(1, 21)=0.010, P=0.921. […]
Whole-cell voltage clamp recordings were done with an Axopatch 200B amplifier (Axon Instrument) as previously described^29, 30. […] For mEPSC recordings, voltage clamp recordings were performed at −60 mV in the presence of 100 μM picrotoxin and 1 μM TTX. mIPSCs were measured at +10 mV in the presence of 1 mM kynurenic acid and 1 μM TTX. […]

For N#C/C(=C(/N)Sc1ccc(N)cc1)c1ccccc1C(F)(F)F [SL327], the mEPSC frequency (Ptpn11^D61G/+ mice) was 2.87±1.02 and the mEPSC frequency (WT littermates) was 2.46±0.63.
